Source: paper PMC10480161, “Identification of potent and selective N-myristoyltransferase inhibitors of Plasmodium vivax liver stage hypnozoites and schizonts” (Nature Communications, 2023)
Several values for one entry are separate records, joined by “and”; a condition that tells them apart may be missing. Equal values may be shown once. Read-outs that look alike come from different tables or passages of the source.

How the values were obtained:
[1] = tested on: P. falciparum NF54; assay: P. falciparum blood stage assay (SYBR Green); format: cell-based, Plasmodium falciparum; conditions: 72 h; for P. falciparum blood-stage development (parasite DNA level fluorescence): untreated = 129; for IC50: ring-stage parasites, relative IC50
[2] = tested on: P. vivax schizonts; assay: P. vivax liver stage assay, schizonts; format: cell-based, Plasmodium vivax; conditions: for Number of liverstage Schizonts per well: 20 µM, 8 dpi; for IC50: primary human hepatocytes, treatment day 5 to 8 post-infection, isolates 2 and 3
How it was run: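 Primary human hepatocytes (single donor, 25,000/well) infected with 14,000 P. vivax sporozoites per well from patient isolates; compounds (up to 20 µM) given daily from day 5 to day 8 post-infection. Schizonts counted by PvUIS4/DAPI confocal imaging; DAPI nuclei count used as toxicity measure.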

[3] = tested on: P. vivax hypnozoites; assay: P. vivax liver stage assay, hypnozoites; format: cell-based, Plasmodium vivax; conditions: for Hypnozoites per well: Isolate 2, replicate wells (Figure 6d); for Number of liverstage hypnozoites per well: 20 µM, 8 dpi; for IC50: primary human hepatocytes, treatment day 5 to 8 post-infection, isolate 2
How it was run: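 Primary human hepatocytes infected with P. vivax sporozoites, then exposed to compound daily from day 5 to day 8 post-infection. Fixed cells stained with DAPI and PvUIS4 antibody; hypnozoites and schizonts counted by confocal imaging. MMV390048 at 20 µM served as schizont-eliminating control.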

[4] = molecular target: PvNMT (Plasmodium vivax, UniProt A5K1A2); assay: NMT activity assay (CPM detection of free CoA), PvNMT; conditions: for SI: enzyme selectivity, HsNMT IC50/PvNMT IC50
[5] = molecular target: T1, HsNMT1 (Homo sapiens, UniProt P30419); assay: NMT activity assay (CPM detection of free CoA), HsNMT
T1 sequence (P30419 1-496): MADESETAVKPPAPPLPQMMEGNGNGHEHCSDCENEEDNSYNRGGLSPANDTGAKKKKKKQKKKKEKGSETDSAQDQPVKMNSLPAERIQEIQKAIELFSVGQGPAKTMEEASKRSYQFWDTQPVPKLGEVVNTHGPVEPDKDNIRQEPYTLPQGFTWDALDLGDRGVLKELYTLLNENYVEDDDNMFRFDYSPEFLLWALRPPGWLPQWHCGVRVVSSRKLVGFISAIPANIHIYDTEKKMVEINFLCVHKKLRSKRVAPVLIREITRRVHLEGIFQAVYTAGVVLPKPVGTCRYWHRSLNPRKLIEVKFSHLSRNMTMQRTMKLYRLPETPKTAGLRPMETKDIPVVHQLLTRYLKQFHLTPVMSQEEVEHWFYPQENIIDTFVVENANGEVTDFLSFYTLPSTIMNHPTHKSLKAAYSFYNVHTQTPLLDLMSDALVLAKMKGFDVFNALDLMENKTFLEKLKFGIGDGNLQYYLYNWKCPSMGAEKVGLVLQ

[6] = isolate 1, technical replicates (Fig. 5b)
[7] = isolate 2, technical replicates (Fig. 5b)
[8] = isolate 3, technical replicates (Fig. 5b)
[9] = isolate 1, technical replicates (Fig. 6C)
[10] = isolate 2, technical replicates (Fig. 6C)
[11] = isolate 3, technical replicates (Fig. 6C)
[12] = Plasmodium vivax, Hepatocyte, 120 h
[13] = PvNMT IC50, mean of two or more determinations

PvNMT, sequence (A5K1A2 entry or part of it): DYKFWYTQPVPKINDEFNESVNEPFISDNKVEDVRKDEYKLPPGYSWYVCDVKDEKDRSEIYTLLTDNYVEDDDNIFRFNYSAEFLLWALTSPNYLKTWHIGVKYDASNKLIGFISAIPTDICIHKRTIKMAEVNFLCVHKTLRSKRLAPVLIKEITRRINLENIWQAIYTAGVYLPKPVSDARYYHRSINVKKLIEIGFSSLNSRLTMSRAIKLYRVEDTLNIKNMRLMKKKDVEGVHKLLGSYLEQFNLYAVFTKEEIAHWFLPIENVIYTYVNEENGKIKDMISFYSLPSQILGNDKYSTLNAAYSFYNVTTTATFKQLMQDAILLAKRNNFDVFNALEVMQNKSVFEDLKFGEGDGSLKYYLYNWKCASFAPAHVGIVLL

SMILES	P. falciparum blood-stage development (parasite DNA level fluorescence) ([1]; 0.625 uM)	P. falciparum blood-stage development (parasite DNA level fluorescence) ([1]; 1.25 uM)	P. falciparum blood-stage development (parasite DNA level fluorescence) ([1]; 2.5 uM)	P. falciparum blood-stage development (parasite DNA level fluorescence) ([1]; 5 uM)	P. falciparum blood-stage development (parasite DNA level fluorescence) ([1]; 10 uM)	Number of liverstage Schizonts per well [2, 6]	Number of liverstage Schizonts per well [2, 7]	Number of liverstage Schizonts per well [2, 8]	Schizonts per well ([2]; Isolate 2, 1.25 uM)	Schizonts per well ([2]; Isolate 2, 2.5 uM)	Schizonts per well ([2]; Isolate 2, 5 uM)	Schizonts per well ([2]; Isolate 3, 1.25 uM)	Schizonts per well ([2]; Isolate 3, 2.5 uM)	Schizonts per well ([2]; Isolate 3, 5 uM)	schizonts (fold change to DMSO) mean diff ([2]; isolate 1, 20 µM)	schizonts (fold change to DMSO) mean diff ([2]; isolate 2, 20 µM)	schizonts (fold change to DMSO) mean diff ([2]; isolate 3, 20 µM)	Hypnozoites per well ([3]; 1.25 uM)	Hypnozoites per well ([3]; 2.5 uM)	Hypnozoites per well ([3]; 5 uM)	also measured
Cc1n[nH]c(C)c1CCOc1cc(F)ccc1-c1ccnc(N2CCNCC2)c1 [Compound 12q]	114.1	119.1	116.1	98.36	97.95	0 per well (2×) and 1 per well	3 per well and 4 per well and 1 per well	3 per well and 7 per well	11 per well and 15 per well and 12 per well	7 per well and 9 per well and 13 per well	9 per well and 11 per well and 12 per well	12 per well and 13 per well	6 per well and 11 per well	7 per well and 6 per well	0.983	0.8491	0.6591	11 and 8 and 10	8 and 5 and 7	5 and 6 and 3	IC50 [1]: 0.38 µM; Schizonts per well ([2]; Isolate 2, 10 uM): 7 per well and 5 per well and 6 per well; Schizonts per well ([2]; Isolate 3, 10 uM): 5 per well and 8 per well; IC50 [2]: 2.2 to 3.5 µM; Hypnozoites per well ([3]; 10 uM): 5 and 0 and 3; Number of liverstage hypnozoites per well [3, 9]: 0 per well (2×) and 1 per well; Number of liverstage hypnozoites per well [3, 10]: 1 per well (2×) and 0 per well; Number of liverstage hypnozoites per well [3, 11]: 0 per well; Hypnozoites per well ([3]; 20 uM): 1 (2×) and 0; hypnozoites (fold change to DMSO) mean diff ([3]; isolate 1, 20 µM): 0.939; hypnozoites (fold change to DMSO) mean diff ([3]; isolate 2, 20 µM): 0.931; IC50 [3]: 4.4 µM; SI [4]: 22; IC50 ([4]; read-out: PvNMT IC50, mean of two or more determinations): 0.073 µM; IC50 ([5]; read-out: HsNMT IC50, mean of two or more determinations): 1.63 µM
Cc1nn(C)c(C)c1CCOc1ccccc1-c1cccc(OCCN(C)C)c1 [Compound 26b]	123.3	124.2	115.6	103.2	94.32	0 per well (2×) and 5 per well	3 per well and 4 per well and 0 per well	3 per well and 8 per well	12 per well and 19 per well and 15 per well	9 per well and 7 per well and 12 per well	10 per well and 8 per well and 6 per well	11 per well and 13 per well	9 per well and 12 per well	8 per well and 12 per well	0.917	0.8679	0.625	10 and 6 and 12	4 and 8 and 7	7 and 5 and 9	IC50 ([1]; Plasmodium falciparum, NF54): 0.71 µM; Schizonts per well ([2]; Isolate 2, 10 uM): 7 per well and 4 per well and 5 per well; Schizonts per well ([2]; Isolate 3, 10 uM): 6 per well and 11 per well; IC50 [2, 12]: 3.1 to 4.1 µM; Hypnozoites per well ([3]; 10 uM): 4 (2×) and 0; Number of liverstage hypnozoites per well [3, 9]: 1 per well (2×) and 2 per well; Number of liverstage hypnozoites per well [3, 10]: 3 per well and 1 per well and 2 per well; Number of liverstage hypnozoites per well [3, 11]: 0 per well; Hypnozoites per well ([3]; 20 uM): 3 and 1 and 2; IC50 [3, 12]: 4.6 µM; hypnozoites (fold change to DMSO) mean diff ([3]; isolate 1, 20 µM): 0.908; hypnozoites (fold change to DMSO) mean diff ([3]; isolate 2, 20 µM): 0.793; IC50 [4, 13]: 0.0832 µM; SI [4]: 118.4; IC50 [5]: 9.85 µM
Cc1nn(C)c(C)c1CCOc1cc(F)ccc1-c1cccc(OCCN(C)C)c1 [Compound 26c]	127.1	126.9	117.8	108.1	97.66	0 per well	3 per well and 0 per well (2×)	2 per well and 1 per well	14 per well and 13 per well and 12 per well	10 per well and 15 per well and 13 per well	7 per well and 12 per well and 8 per well	11 per well and 9 per well	6 per well and 10 per well	7 per well and 5 per well	1.000	0.9434	0.8977	7 and 11 and 8	6 and 5 and 7	6 (2×) and 3	IC50 ([1]; Plasmodium falciparum, NF54): 0.82 µM; Schizonts per well ([2]; Isolate 2, 10 uM): 5 per well and 3 per well and 6 per well; Schizonts per well ([2]; Isolate 3, 10 uM): 4 per well and 2 per well; Schizonts per well ([2]; Isolate 3, 20 uM (Fig. 5c-d)): 2 per well and 1 per well; IC50 [2, 12]: 2.8 to 4.2 µM; Hypnozoites per well ([3]; 10 uM): 3 and 2 and 7; Number of liverstage hypnozoites per well [3, 9]: 4 per well and 0 per well (2×); Number of liverstage hypnozoites per well [3, 10]: 4 per well and 0 per well (2×); Number of liverstage hypnozoites per well [3, 11]: 0 per well (2×) and 1 per well; Hypnozoites per well ([3]; 20 uM): 4 and 0 (2×); IC50 [3, 12]: 4.2 µM; hypnozoites (fold change to DMSO) mean diff ([3]; isolate 1, 20 µM): 0.923; hypnozoites (fold change to DMSO) mean diff ([3]; isolate 2, 20 µM): 0.862; IC50 [4, 13]: 0.0294 µM; SI [4]: 162.3; IC50 [5]: 4.79 µM
Cc1n[nH]c(C)c1CCOc1cc(F)ccc1-c1cccc(OCCN(C)C)c1 [Compound 26i]	109.6	112.9	111.2	93.25	85.5	2 per well (2×) and 0 per well	2 per well (2×) and 4 per well	3 per well and 2 per well	14 per well and 13 per well	14 per well and 11 per well and 12 per well	10 per well and 9 per well and 7 per well	12 per well and 13 per well	10 per well and 9 per well	8 per well and 9 per well	0.933	0.8491	0.8295	10 and 7 and 12	7 and 9 and 14	10 and 7 and 12	IC50 ([1]; Plasmodium falciparum, NF54): 0.4 µM; Schizonts per well ([2]; Isolate 2, 20 uM (Fig. 5c-d)): 2 per well and 4 per well; Schizonts per well ([2]; Isolate 3, 20 uM (Fig. 5c-d)): 3 per well and 2 per well; IC50 [2, 12]: 3.3 to 5.2 µM; Hypnozoites per well ([3]; 10 uM): 8 and 12 and 14; Number of liverstage hypnozoites per well [3, 9]: 8 per well and 6 per well (2×); Number of liverstage hypnozoites per well [3, 10]: 8 per well and 6 per well (2×); Number of liverstage hypnozoites per well [3, 11]: 0 per well; Hypnozoites per well ([3]; 20 uM): 8 and 6 (2×); IC50 [3, 12]: 11 µM; hypnozoites (fold change to DMSO) mean diff ([3]; isolate 1, 20 µM): 1.000; hypnozoites (fold change to DMSO) mean diff ([3]; isolate 2, 20 µM): 0.310; IC50 [4, 13]: 0.242 µM; SI [4]: 57; IC50 [5]: 13.9 µM
